The target of this experiment is SARS-CoV-2 nsp12/7/8 (RTC) complex (Severe acute respiratory syndrome coronavirus 2, UniProt P0DTD1). The experiment can be described thus: biochemical. The class given is biochemical.
Setting [1] is: primer-extension PAGE assay, 150 nM RTC, 5% DMSO, 30 min preincubation at 37 °C, mean and SD of at least 3 independent experiments.
Setting [2] is: read-out: IC50: compound concentration required to inhibit by 50% the SARS-CoV-2 RTC enzymatic activity.

SMILES strings stand for the structures. Like-named read-outs stand apart in the source and are kept apart here.

In turn, `Cc1ccc(C(=O)NNC(=O)c2c(C)cccc2Cl)cc1C#Cc1cnc2ccccc2c1` [Vodobatinib, reference compound] returned an IC50 under setting [1] greater than 100 µM.
For `C[C@@H]1CC[C@@]2(OC1)O[C@H]1C[C@H]3[C@@H]4CC=C5C[C@@H](O[C@@H]6O[C@H](CO)[C@@H](O)[C@H](O)[C@H]6O[C@@H]6O[C@@H](C)[C@H](O)[C@@H](O)[C@H]6O)CC[C@]5(C)[C@H]4CC[C@]3(C)[C@H]1[C@@H]2C` [Prosapogenin A], the IC50 under setting [2] is greater than 100 µM.
Consider `CC(C)(O)[C@H]1CC[C@@](C)([C@H]2CC[C@]3(C)[C@@H]2[C@H](O)C[C@@H]2[C@@]4(C)CC[C@H](O)C(C)(C)[C@@H]4[C@@H](O[C@@H]4O[C@H](CO)[C@@H](O)[C@H](O)[C@H]4O)C[C@]23C)O1` [Pseudoginsenoside Rt5], for which the IC50 under setting [2] is greater than 100 µM.
Regarding `C[C@@H]1CC[C@]2(C(=O)O)CC[C@]3(C)C(=CC[C@@H]4[C@@]5(C)CC[C@H](O)C(C)(C)[C@@H]5CC[C@]43C)[C@@H]2[C@]1(C)O` [Pomolic acid], the IC50 is greater than 100 µM.
For the compound `C=CCOc1cccc(C(=O)[C@@H]2[C@@H]3CCCN3[C@]3(C(=O)Nc4c(C)cc(C)cc43)[C@@]23C(=O)Nc2ccccc23)c1` [(1'S,3R,3'S,7a'S)-5'',7''-dimethyl-1'-{[3-(prop-2-en-1-yloxy)phenyl]carbonyl}-5',6',7',7a'-tetrahydro-1'H-dispiro[indole-3,2'-pyrrolizine-3',3''-indole]-2,2''(1H,1''H)-dione], the IC50 under setting [2] is greater than 100 µM.
The same measure, in the same setting: for `CC1=C2C[C@H]3[C@@H](CC(=O)[C@H]4C[C@@H](O)CC[C@@]43C)[C@@H]2CC[C@]12O[C@@H]1C[C@H](C)CN[C@H]1[C@H]2C` [Peimisine] the value was greater than 100 µM.
The same measure, in the same setting: as for `Cc1ccc(NC(=O)[C@H]2CCCN(C(=O)c3c(C)cccc3F)[C@H]2c2ccc(NC3CCCC3)cc2)cc1C(F)(F)F` [Avacopan, reference compound], the figure is greater than 100 µM.
In turn, `Cc1ccc(F)cc1C(=O)Nc1ccc(C(=O)N2Cc3cccn3Cc3ccccc32)c(Cl)c1` [Lixivaptan, reference compound] gave an IC50 under setting [1] greater than 100 µM.
For `CC1(C)CC[C@]2(C(=O)O)[C@H](O)C[C@]3(C)C(=CC[C@@H]4[C@@]5(C)CC[C@H](O)[C@@](C)(C=O)[C@@H]5CC[C@]43C)[C@@H]2C1` [Quillaic acid], the IC50 was 83.9 ± 9.31 µM.
`C[C@H]1CC[C@@H]2N(C1)C[C@H]1[C@@H]3C[C@H]4[C@@H](CC(=O)[C@H]5C[C@@H](O[C@@H]6O[C@H](CO)[C@@H](O)[C@H](O)[C@H]6O)CC[C@@]54C)[C@@H]3CC[C@H]1[C@]2(C)O` [Imperialine 3-beta-D-glucoside]: the IC50 under setting [2] was greater than 100 µM.
Regarding `C[C@H](CC[C@@H](O[C@@H]1O[C@H](CO)[C@@H](O)[C@H](O)[C@H]1O)C(C)(C)O)[C@H]1CC[C@@]2(C)[C@@H]3CC=C4[C@@H](CC[C@H](O[C@@H]5O[C@H](CO)[C@@H](O)[C@H](O)[C@H]5O)C4(C)C)[C@]3(C)[C@H](O)C[C@]12C` [Mogroside IIe], under setting [2], the IC50 was greater than 100 µM.
Take `CC(C)(C)NC(=O)c1ccc(Oc2cc(F)c(CC(=O)O)cc2Cl)c(NS(=O)(=O)c2ccc(C3CC3)cc2Cl)c1` [Vidupiprant, reference compound]: under setting [1], the IC50 was 63.5 ± 24.3 µM.
On to `C[C@H]1[C@H](C)CC[C@]2(C(=O)O)CC[C@]3(C)C(=CC[C@@H]4[C@@]5(C)CC[C@H](O)C(C)(C)[C@@H]5CC[C@]43C)[C@H]12` [Ursolic acid, reference compound], for which the IC50 was greater than 100 µM.
As to `CC1(C)[C@H](OC(=O)c2ccccc2)CC[C@]2(C)C3=C([C@@H](O)C[C@@H]12)[C@@]1(C)CC[C@@]2(C)CC[C@@](C)(COC(=O)c4ccccc4)C[C@H]2[C@]1(C)CC3` [3,29-Dibenzoyl Rarounitriol], the IC50 under setting [2] was greater than 100 µM.
`CC1(C)[C@@H](O)CC[C@]2(C)[C@H]3C(=O)C=C4[C@@H]5C[C@@](C)(C(=O)O)CC[C@]5(C)CC[C@@]4(C)[C@]3(C)CC[C@@H]12` [Enoxolone, reference compound]: the IC50 is 35.5 ± 4.61 µM.
Consider `CC(C)C1=C2[C@H]3CC[C@@H]4[C@@]5(C)CC[C@H](OC(=O)CC(C)(C)C(=O)O)C(C)(C)[C@@H]5CC[C@@]4(C)[C@]3(C)CC[C@@]2([C@@H](O)CN(CCN(C)C)Cc2ccc(Cl)cc2)CC1=O` [Gsk-2838232, reference compound], for which the IC50 under setting [2] was greater than 100 µM.
Take `C[C@@H]1C(=O)O[C@H](C)[C@H]1C[C@@H](O)[C@](C)(O)[C@H]1CC[C@@]2(O)C3=CC(=O)[C@@H]4C[C@@H](O)[C@@H](O)C[C@]4(C)[C@H]3CC[C@]12C` [Cyasterone]: the IC50 was greater than 100 µM.
Compound `CC(=O)OC(C)(C)/C=C/C(=O)[C@](C)(O)[C@H]1[C@H](O)C[C@@]2(C)[C@@H]3CC=C4[C@@H](C=C(O)C(=O)C4(C)C)[C@]3(C)C(=O)C[C@]12C` [Cucurbitacin E] came in with an IC50 of 47.2 ± 20.5 µM.
With `CC1(C)CC[C@]2(C(=O)O[C@@H]3O[C@H](CO)[C@@H](O)[C@H](O)[C@H]3O)CC[C@]3(C)C(=CC[C@@H]4[C@@]5(C)CC[C@H](O[C@@H]6O[C@H](C(=O)O)[C@@H](O)[C@H](O)[C@H]6O[C@@H]6OC[C@@H](O)[C@H](O)[C@H]6O)C(C)(C)[C@@H]5CC[C@]43C)[C@@H]2C1` [Pseudoginsenoside Rt1], the IC50 amounted to 49.3 ± 5.86 µM.
Take `C[C@@H]1CC[C@@]2(OC1)O[C@H]1C[C@H]3[C@@H]4CC=C5C[C@@H](O[C@@H]6O[C@H](CO)[C@@H](O)[C@H](O)[C@H]6O[C@@H]6O[C@@H](C)[C@H](O)[C@@H](O)[C@H]6O)CC[C@]5(C)[C@H]4CC[C@]3(C)[C@@]1(O)[C@@H]2C` [(2S,3R,4R,5R,6S)-2-[(2R,3R,4S,5S,6R)-4,5-dihydroxy-6-(hydroxymethyl)-2-[(1R,2S,4S,5'R,6R,7S,8S,9S,12S,13R,16S)-8-hydroxy-5',7,9,13-tetramethylspiro[5-oxapentacyclo[10.8.0.02,9.04,8.013,18]icos-18-ene-6,2'-oxane]-16-yl]oxyoxan-3-yl]oxy-6-methyloxane-3,4,5-triol]: the IC50 under setting [2] was greater than 100 µM.
Regarding `CC(C)=CCC[C@@](C)(O)[C@H]1CC[C@]2(C)[C@@H]1[C@H](O)C[C@@H]1[C@@]3(C)CC[C@H](O)C(C)(C)[C@@H]3CC[C@]12C` [(20R)-Protopanaxadiol], the IC50 under setting [2] is greater than 100 µM.
In the case of `CC1(C)CC[C@]2(NC(=O)C(C)(F)F)CC[C@]3(C)[C@H](C(=O)C=C4[C@@]5(C)C=C(C#N)C(=O)C(C)(C)[C@@H]5CC[C@]43C)[C@@H]2C1` [Omaveloxolone, reference compound], the IC50 under setting [1] is 13 ± 4.28 µM.
Consider `C[C@H]1[C@H](C)CC[C@]2(C(=O)O)CC[C@]3(C)C(=CC[C@@H]4[C@@]5(C)CC[C@H](O)C(C)(C)[C@@H]5CC[C@]43C)[C@H]12` [3-Epiursolic Acid], for which, under setting [2], the IC50 turned out to be 11.6 ± 3.97 µM.
As to `COc1cccc(OC)c1-c1cc(C(=O)NC2(C(=O)O)C3CC4CC(C3)CC2C4)nn1-c1ccnc2cc(Cl)ccc12` (centres unmarked) [Meclinertant, reference compound], the IC50 under setting [1] was 15.4 ± 2.77 µM.
In the case of `CC(=O)O[C@@H](C[C@@H](C)C1=C2C[C@H](O)[C@H]3[C@@]4(C)CCC(=O)C(C)(C)[C@@H]4CC[C@]3(C)[C@@]2(C)CC1=O)[C@H]1OC1(C)C` [Alisol C monoacetate], under setting [2], the IC50 was greater than 100 µM.
The same measure, in the same setting: as for `O=C(CCn1c2c(c3ccccc31)CCn1c-2nc2ccccc2c1=O)N1CCN(C2=Nc3ccccc3Oc3ccccc32)CC1` [13-{3-[4-(dibenzo[b,f][1,4]oxazepin-11-yl)piperazin-1-yl]-3-oxopropyl}-8,13-dihydroindolo[2',3':3,4]pyrido[2,1-b]quinazolin-5(7H)-one], the figure is greater than 100 µM.

(Values after publication PMC12519464, “Dual-Site Inhibition of SARS-CoV‑2 RNA-Dependent RNA Polymerase by Small Molecules Able to Block Viral Replication Identified through a Computer-Aided Drug Discovery Approach” (ACS Infectious Diseases, 2025).)
